For experiment [1], the system named is MMP9. Briefly: MMP9 immunohistochemical staining of extracted xenograft tumor tissue. The format is in vivo. The conditions noted are these: extracted NUGC3 xenograft tumor, 10 mg/kg once a day. How it is done: After completion of the in vivo xenograft experiment in Example 6-1, changes in the protein expression level of MMP9 were measured in the extracted tumor tissue using immunohistochemical staining and Western blot methods. The immunohistochemical staining was performed by the following method. The extracted tumor tissue was immobilized with 4% paraformaldehyde and embedded in paraffin, and then the tissue was sectioned at 4 μm thickness and attached to a glass slide. The tissue was hydrated with a xylene-ethanol reaction, and then reacted with an MMP9 antibody (1:100) at 4° C. overnight. The next day, the tissue sections were washed with PBS and reacted with a secondary antibody HRP-conjugated anti-rabbit antibody (1:100) at room temperature for 1 hour, and then the antibody was washed with PBS, and the reacted MMP9 was searched through the reaction by a DAB substrate kit (Vecotr Laboratories, #SK-4100). After DAB washing, nuclear staining was performed with a hematoxylin solution, and the tissue was emulsified through an ethanol-xylene reaction and then mounted. Tissue photographs were obtained using a Nikon TS2 microscope.

Experiment [2] deals with stomach cancer cell lines NUGC3. The experiment is described as follows: Mouse xenograft experiment (tumor formation). Type of experiment: in vivo, Balb-c/nude mouse. Particulars: intraperitoneally 10 mg/kg once a day. How it is done: A mouse xenograft experiment was performed to analyze a tumor formation inhibitory effect of cancer therapeutic peptide fragments. Specifically, 5×10^6 stomach cancer cell lines NUGC3 were transplanted by subcutaneous injection into a flank site of a 6-week-old female Balb-c/nude mouse, and after one week (average tumor size 100 mm^3), Vehicle (0.9% saline), OCP5 (SEQ ID NO: 12), OCP5-VGLL1S84-15C (SEQ ID NO: 29), or OCP5-VGLL1S84-7C (SEQ ID NO: 33) was each administered intraperitoneally at 10 mg/kg once a day. Tumor size was measured with a digital caliper at 2-day intervals from the start of drug administration, and the tumor size (tumor size (mm^3)=long axis x short axis2) was calculated. The experiment was terminated when the average tumor size of the OCP5-administered group was 1,000 mm3, and then the tumor was extracted, and the tumor weight was measured.

Experiment [3] relates to MMP9. Briefly: MMP9 Western blot of extracted xenograft tumor tissue. The format is in vivo. The conditions noted are these: extracted NUGC3 xenograft tumor, 10 mg/kg once a day. How it is done:
After completion of the in vivo xenograft experiment in Example 6-1, changes in the protein expression level of MMP9 were measured in the extracted tumor tissue using immunohistochemical staining and Western blot methods. In addition, the amount of MMP9 protein in the tumor tissue was analyzed by Western blot experiment. The protein amount in the sample was quantified using a BCA assay method, and 20 μg of each sample was loaded, electrophoresed on SDS-PAGE, and then transferred to a nitrocellulose membrane. The membrane was blocked in a 5% skim milk solution for 1 hour, and then placed in MMP9 (1:1000, Abcam #ab76003) or ACTB (1:10,000, SantaCruz #sc-47778) antibody solution and reacted overnight at 4° C. The next day, the primary antibody was removed, the membrane was washed with a TBST buffer, and a HRP-conjugated anti-mouse or anti-rabbit secondary antibody was diluted at 1:10,000 in the 5% skim milk solution, and then reacted with the membrane at room temperature for 1 hour. The blot reacted with a SuperSignalTM West Pico Chemiluminescent substrate (ThermoFisher #34580) and analyzed on the ChemiDoc XRS+ System (Bio-Rad Laboratories, #1708265).

Experiment [4] relates to pancreatic cancer cell line MIAPaca-1. Briefly: Cell growth inhibition (sulforhodamine B staining). The format is cell-based. Particulars: MIAPaca-1, 10 μM. How it is done: (§1) Specifically, in order to confirm cell growth ability, a stomach cancer cell line NUGC3 and a breast cancer cell line SK-BR-3 were each subcultured in a 96-well plate, and the next day, peptide fragments Con, 7, and CC of Table 2 were treated with 100 μM each to the cell lines. After 72 hours, the cells were immobilized with a 10% trichloroacetic acid solution, and then stained the cell with a 0.4% sulforhodamine B solution for 1 hour, washed with acetic acid, and dried. Thereafter, the dried cells were dissolved in a 10 mM Tris solution and absorbance was measured at 510 nm using an ELISA plate reader.
(§2) It was investigated whether the cancer therapeutic peptide synthesized in this study could be used to treat various cancers other than stomach cancer. For this purpose, the cancer therapeutic peptides OCP and OCP5-VGLLIS84-7C were treated in stomach cancer cell lines […] and AGS, lung cancer cell lines H460 and A549, pancreatic cancer cell lines AsPC-1 and MIAPaca-1, and breast cancer cell lines MCF7 and MDA-MB-231 at concentrations of 10 μM. Thereafter, as a result of analysis in the same manner as in Example 1, the growth inhibitory efficacy of OCP5-VGLLIS84-7C cancer cells was confirmed compared to the control OCP5 (FIG. 14).
(In general: The SRB assay estimates cell density from bound dye.)

Experiment [5] has as its system pancreatic cancer cell line AsPC-1. Briefly: Cell growth inhibition (sulforhodamine B staining). Type of experiment: cell-based. Particulars: AsPC-1, 10 μM. How it is done:
as §1, §2

Experiment [6] has as its system stomach cancer cell line NUGC2. Briefly: Cell growth inhibition (sulforhodamine B staining). Type of experiment: cell-based. Particulars: NUGC2, 10 μM. How it is done: as §1, §2
Experiment [7] has as its system breast cancer cell line MDA-MB-231. The experiment is described as follows: Cell growth inhibition (sulforhodamine B staining). The format is cell-based. The conditions noted are these: MDA-MB-231, 10 μM. How it is done: as §1, §2
Experiment [8] deals with breast cancer cell line MCF7. The experiment is described as follows: Cell growth inhibition (sulforhodamine B staining). Type of experiment: cell-based. The conditions noted are these: MCF7, 10 μM. How it is done: as §1, §2
For experiment [9], the system named is lung cancer cell line H460. The experiment is described as follows: Cell growth inhibition (sulforhodamine B staining). The conditions noted are these: H460, 10 μM. The format is cell-based. How it is done:
as §1, §2

For experiment [10], the system named is lung cancer cell line A549. Briefly: Cell growth inhibition (sulforhodamine B staining). Type of experiment: cell-based. Particulars: A549, 10 μM. How it is done: as §1, §2
Experiment [11] deals with stomach cancer cell line NUGC3. Briefly: Cell growth inhibition (sulforhodamine B staining). Type of experiment: cell-based. How it is done: as §1
In order to compare the cancer cell growth inhibitory effects of cancer therapeutic peptides according to cell-penetrating peptides, the stomach cancer cell line NUGC3 was treated with 10 μM each of cancer therapeutic peptide fragments in Table 4, and the cancer cell growth inhibitory effects were screened in the same manner as in Example 1.
Specifically, in order to confirm the cancer cell inhibition enhancing effect by enhancing the cell permeability of OCP5 among the novel synthesized CPPs, a cancer therapeutic peptide fragment represented by SEQ ID NO: 6 including the existing TAT and a cancer therapeutic peptide fragment represented by SEQ ID NO: 31 including the novel synthesized OCP5 were used. The stomach cancer cell lines NUGC3 and AGS, the breast cancer cell line SK-BR-3, and the pancreatic cancer cell line Capan-1 were treated with 25 μM SEQ ID NO: 6 and 100 μM SEQ ID NO: 31 for 72 hours, respectively, and the cancer cell growth inhibitory effects were compared in the same manner as in Example 1. […] Through this, it was confirmed that the novel CPP may be applied more effectively than the existing TAT to inhibit the cancer cell growth by the anticancer peptides.
To analyze the cancer cell growth inhibitory effect according to a length of the anticancer peptide fragment, OCP9-VGLLIS84-7 (SEQ ID NO: 43), OCP9-VGLLIS84-9CC (SEQ ID NO: 46), and OCP9-VGLLIS84-15 (SEQ ID NO: 49) were treated for each concentration to analyze the growth inhibitory effects of stomach cancer cell lines NUGC3 and NCI-N87. When stomach cancer cells were treated with cancer therapeutic peptides, the cancer cell growth inhibitory efficacy was shown in a concentration-dependent manner. In addition, it was confirmed that the growth inhibitory effect on the stomach cancer cell lines increased as the length of the anticancer peptide fragment increased (FIG. 7).
Specifically, the cancer cell growth inhibitory effect according to partial or entire cyclization of the anticancer peptide fragment was analyzed. The stomach cancer cell line NUGC3 was treated with a CPP fragment OCP9 (SEQ ID NO: 16), a partially cyclized sequence […] (SEQ ID NO: 33), or a sequence OCP9-VGLLIS84-7CC (SEQ ID NO: 40) including an entirely cyclized anticancer peptide at different concentrations of 1, 2.5, 5, 10, and 20 μM, respectively, and the cancer cell growth inhibitory effects were compared in the same manner as in Example 1.

Experiment [12] has as its system stomach cancer cell line AGS. Briefly: Cell growth inhibition (sulforhodamine B staining). Particulars: 10 μM. The format is cell-based. How it is done: as §1
(§3) Specifically, in order to confirm the cancer cell inhibition enhancing effect by enhancing the cell permeability of OCP5 among the novel synthesized CPPs, a cancer therapeutic peptide fragment represented by SEQ ID NO: 6 including the existing TAT and a cancer therapeutic peptide fragment represented by SEQ ID NO: 31 including the novel synthesized OCP5 were used. The stomach cancer cell lines NUGC3 and AGS, the breast cancer cell line SK-BR-3, and the pancreatic cancer cell line Capan-1 were treated with 25 μM SEQ ID NO: 6 and 100 μM SEQ ID NO: 31 for 72 hours, respectively, and the cancer cell growth inhibitory effects were compared in the same manner as in Example 1. […]

In experiment [13] the test system is stomach cancer cell lines NUGC3. Briefly: Wound healing assay (cancer cell migration). The format is cell-based. The conditions noted are these: 10 μM. How it is done:
In order to analyze the possibility of metastasis inhibitory efficacy of stomach cancer cells by anticancer therapeutic peptides, a wound healing assay was performed to evaluate a migration inhibitory effect of stomach cancer cells. Specifically, 5×10^4 stomach cancer cell lines NUGC3 were subcultured in a 24-well plate, and then the next day, scratches were made at the center of the cells, and 10 μM OCP5-VGLL1S84-7C (SEQ ID NO: 33) was mixed into the cell culture medium and administered. Real-time cell images were acquired through Cytation5 (Biotek), and the degree of cancer cell migration was analyzed by calculating the average area (wound width, B) of the scratch area and the degree (% Confluence, C) to which cells were filled.

The subject of experiment [14] is breast cancer cell line SK-BR-3. The experiment is described as follows: Cell growth inhibition (sulforhodamine B staining). Type of experiment: cell-based. Particulars: SK-BR-3, 100 μM, 72 hours; compared with linear anticancer peptide (SEQ ID NO: 5). How it is done:
as §1, §3

Positions of bridges follow the written chain, without caps; N, C: chain ends. No end group written: not given here.

Regarding “SIIFRIFLHLQK-CPNQWRYSSPWTKPQPC-RRR (SIIFRIFLHLQKCPNQWRYSSPWTKPQPCRRR; disulfide 13-29) [OCP5-VGLL1S84-15C]”, the “amount of MMP9 protein in the tumor (immunohistochemical staining)” value with MMP9 [1] is “significantly reduced”. Further, the “tumor formation inhibitory effect compared to the vehicle group” value in experiment [2] was 63%. Further, in the experiment with MMP9 [3], the “amount of MMP9 in tumor tissues (Western blot)” value is listed as “reduced”.
As to “SIIFRIFLHLQK-CYSSPWTKC-RRR (SIIFRIFLHLQKCYSSPWTKCRRR; disulfide 13-21) [OCP5-VGLL1S84-7C]”, the “growth inhibitory efficacy compared to the control OCP5” value in experiment [4], in [5], in experiment [6], in experiment [7], in experiment [8] and in [9] was “confirmed” in each case. The “growth inhibitory efficacy compared to the control OCP5” value in [10] and in experiment [12] was “confirmed” in each case. The “cancer cell growth inhibitory effect” value in experiment [11] (NUGC3, 10 μM screening of Table 4 peptides) is on record as “significant cancer cell growth inhibitory effect”. For the same substance, the “amount of MMP9 protein in the tumor (immunohistochemical staining)” value in the experiment with MMP9 [1] is on record as “significantly reduced”. The “tumor formation inhibitory effect compared to the vehicle group” value in [2] amounted to 45%. For the same substance, the “migration of cancer cells (wound width, % Confluence)” value in experiment [13] is given as “inhibited”. In addition, the “amount of MMP9 in tumor tissues (Western blot)” value in the experiment on MMP9 [3] is “reduced”.
“YGRKKRRQRRR-CYSSPWTKC (YGRKKRRQRRRCYSSPWTKC; disulfide 12-20) [SEQ ID NO: 6, TAT-cyclic anticancer peptide]”: the “cell growth inhibitory effect” value in experiment [14] is on record as “significantly superior”; in [11] (NUGC3, 100 μM, 72 hours, compared with linear anticancer peptide (SEQ ID NO: 5)), “significantly superior”.

Values taken from patent US20240336659A1, “CELL-PENETRATING PEPTIDE, ANTI-CANCER PEPTIDE, AND PHARMACEUTICAL COMPOSITION FOR PREVENTING OR TREATING CANCER, COMPRISING SAME” (ONECUREGEN CO., LTD., priority 2021, published 2024).
